Experimental data taken from ChEMBL document CHEMBL4507291 (2021).

Assays:
[1] = biological target: Myosin light chain kinase 2, skeletal/cardiac muscle (Homo sapiens) (UniProt Q9H1R3); experiment: MYLK2 (skMLCK) Kinase screen; details: Compound concentration 1.0 uM
[2] = biological target: Cyclin-dependent kinase 2/cyclin A (Homo sapiens) (UniProt P24941+P20248+P78396); experiment: CDK2/cyclin A Kinase screen; type: protein-complex assay; details: Compound concentration 1.0 uM
[3] = biological target: Serine/threonine-protein kinase 26 (Homo sapiens) (UniProt Q9P289); experiment: MST4 Kinase screen; details: Compound concentration 1.0 uM
[4] = biological target: Mitogen-activated protein kinase 8 (Homo sapiens) (UniProt P45983); experiment: MAPK8 (JNK1) Kinase screen; details: Compound concentration 1.0 uM
[5] = biological target: Dual specificity tyrosine-phosphorylation-regulated kinase 1A (Homo sapiens) (UniProt Q13627); experiment: DYRK1A Kinase screen; details: Compound concentration 1.0 uM
[6] = biological target: T1, Dual specificity mitogen-activated protein kinase kinase 6 (Homo sapiens) (UniProt P52564); experiment: MAP2K6 (MKK6) Kinase screen; details: Compound concentration 1.0 uM
T1 sequence (whole entry): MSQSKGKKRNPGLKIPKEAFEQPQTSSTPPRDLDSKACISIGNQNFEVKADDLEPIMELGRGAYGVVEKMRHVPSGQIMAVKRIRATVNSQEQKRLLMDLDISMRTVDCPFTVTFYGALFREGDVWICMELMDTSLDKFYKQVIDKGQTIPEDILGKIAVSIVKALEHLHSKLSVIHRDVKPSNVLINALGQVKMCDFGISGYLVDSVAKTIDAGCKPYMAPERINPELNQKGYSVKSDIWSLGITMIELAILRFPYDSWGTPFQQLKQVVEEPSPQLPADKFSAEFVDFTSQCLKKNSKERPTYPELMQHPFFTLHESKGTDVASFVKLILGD

[7] = biological target: Mu-type opioid receptor (Homo sapiens) (UniProt P35372); details: Compound concentration 10.0 uM
[8] = biological target: Serine/threonine-protein kinase Nek7 (Homo sapiens) (UniProt Q8TDX7); experiment: NEK7 Kinase screen; details: Compound concentration 1.0 uM
[9] = biological target: Ribosomal protein S6 kinase alpha-5 (Homo sapiens) (UniProt O75582); experiment: RPS6KA5 (MSK1) Kinase screen; details: Compound concentration 1.0 uM
[10] = biological target: Proto-oncogene tyrosine-protein kinase Src (Homo sapiens) (UniProt P12931); experiment: SRC N1 Kinase screen; details: Compound concentration 1.0 uM
[11] = biological target: Glutamate receptor ionotropic, kainate (Rattus norvegicus) (UniProt P22756+Q01812+P42260+P42264+Q63273); experiment: Inhibition of Glutamate, Kainate at 10 µM in the Eurofins-Panlabs radioligand binding assay (Eurofins_assay_232700); details: Compound concentration 10.0 uM
[12] = biological target: Glycogen synthase kinase-3 beta (Homo sapiens) (UniProt P49841); experiment: GSK3B (GSK3 beta) Kinase screen; details: Compound concentration 1.0 uM
[13] = biological target: Protein kinase C eta type (Homo sapiens) (UniProt P24723); experiment: PRKCH (PKC eta) Kinase screen; details: Compound concentration 1.0 uM
[14] = biological target: Serine/threonine-protein kinase MRCK alpha (Homo sapiens) (UniProt Q5VT25); experiment: CDC42 BPA (MRCKA) Kinase screen; details: Compound concentration 1.0 uM
[15] = biological target: Myosin light chain kinase, smooth muscle (Homo sapiens) (UniProt Q15746); experiment: MYLK (MLCK) Kinase screen; details: Compound concentration 1.0 uM
[16] = biological target: T2, Tyrosine-protein kinase Tec (Homo sapiens) (UniProt P42680); experiment: TEC Kinase screen; details: Compound concentration 1.0 uM
T2 sequence (whole entry): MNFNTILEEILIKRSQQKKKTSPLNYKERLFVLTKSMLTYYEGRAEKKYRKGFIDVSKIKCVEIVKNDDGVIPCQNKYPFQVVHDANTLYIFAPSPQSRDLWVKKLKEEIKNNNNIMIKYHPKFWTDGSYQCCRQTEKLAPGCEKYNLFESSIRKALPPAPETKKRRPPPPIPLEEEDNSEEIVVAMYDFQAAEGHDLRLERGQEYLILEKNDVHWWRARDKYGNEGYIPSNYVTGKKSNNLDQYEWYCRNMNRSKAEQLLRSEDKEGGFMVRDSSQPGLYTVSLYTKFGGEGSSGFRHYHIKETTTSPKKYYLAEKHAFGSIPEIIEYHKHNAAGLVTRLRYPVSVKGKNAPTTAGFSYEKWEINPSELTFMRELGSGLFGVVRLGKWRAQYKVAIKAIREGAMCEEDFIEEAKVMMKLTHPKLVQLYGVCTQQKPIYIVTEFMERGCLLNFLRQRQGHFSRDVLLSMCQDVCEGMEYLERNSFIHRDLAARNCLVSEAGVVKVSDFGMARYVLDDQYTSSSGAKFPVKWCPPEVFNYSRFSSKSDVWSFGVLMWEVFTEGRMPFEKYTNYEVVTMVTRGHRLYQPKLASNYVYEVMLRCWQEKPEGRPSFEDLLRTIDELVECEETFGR

[17] = biological target: Serine/threonine-protein kinase 33 (Homo sapiens) (UniProt Q9BYT3); experiment: STK33 Kinase screen; details: Compound concentration 1.0 uM
[18] = biological target: Tyrosine-protein kinase Blk (Homo sapiens) (UniProt P51451); experiment: BLK Kinase screen; details: Compound concentration 1.0 uM
[19] = biological target: T3, Protein kinase C epsilon type (Homo sapiens) (UniProt Q02156); experiment: PRKCE (PKC epsilon) Kinase screen; details: Compound concentration 1.0 uM
T3 sequence (whole entry): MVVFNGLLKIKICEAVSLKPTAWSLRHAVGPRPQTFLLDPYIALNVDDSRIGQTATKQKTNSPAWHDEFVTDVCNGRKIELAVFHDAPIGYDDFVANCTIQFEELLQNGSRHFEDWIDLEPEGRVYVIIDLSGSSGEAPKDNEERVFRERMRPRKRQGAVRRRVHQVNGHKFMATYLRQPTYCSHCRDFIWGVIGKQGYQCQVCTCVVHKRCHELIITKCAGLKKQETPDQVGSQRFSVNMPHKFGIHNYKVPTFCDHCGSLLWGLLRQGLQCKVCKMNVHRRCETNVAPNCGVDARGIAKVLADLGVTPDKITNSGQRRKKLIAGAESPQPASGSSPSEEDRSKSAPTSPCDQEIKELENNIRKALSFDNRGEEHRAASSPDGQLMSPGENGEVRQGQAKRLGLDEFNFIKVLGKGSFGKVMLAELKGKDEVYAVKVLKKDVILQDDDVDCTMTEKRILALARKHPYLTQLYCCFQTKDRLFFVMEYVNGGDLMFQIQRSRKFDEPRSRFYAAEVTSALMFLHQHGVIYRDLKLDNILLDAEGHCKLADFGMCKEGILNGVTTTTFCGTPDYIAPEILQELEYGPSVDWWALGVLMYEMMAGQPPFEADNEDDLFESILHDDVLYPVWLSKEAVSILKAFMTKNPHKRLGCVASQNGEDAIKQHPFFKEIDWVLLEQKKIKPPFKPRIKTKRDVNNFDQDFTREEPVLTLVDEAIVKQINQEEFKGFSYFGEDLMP

Measured: inhibition

Chain of Myosin light chain kinase 2, skeletal/cardiac muscle (Homo sapiens) (Q9H1R3 whole entry): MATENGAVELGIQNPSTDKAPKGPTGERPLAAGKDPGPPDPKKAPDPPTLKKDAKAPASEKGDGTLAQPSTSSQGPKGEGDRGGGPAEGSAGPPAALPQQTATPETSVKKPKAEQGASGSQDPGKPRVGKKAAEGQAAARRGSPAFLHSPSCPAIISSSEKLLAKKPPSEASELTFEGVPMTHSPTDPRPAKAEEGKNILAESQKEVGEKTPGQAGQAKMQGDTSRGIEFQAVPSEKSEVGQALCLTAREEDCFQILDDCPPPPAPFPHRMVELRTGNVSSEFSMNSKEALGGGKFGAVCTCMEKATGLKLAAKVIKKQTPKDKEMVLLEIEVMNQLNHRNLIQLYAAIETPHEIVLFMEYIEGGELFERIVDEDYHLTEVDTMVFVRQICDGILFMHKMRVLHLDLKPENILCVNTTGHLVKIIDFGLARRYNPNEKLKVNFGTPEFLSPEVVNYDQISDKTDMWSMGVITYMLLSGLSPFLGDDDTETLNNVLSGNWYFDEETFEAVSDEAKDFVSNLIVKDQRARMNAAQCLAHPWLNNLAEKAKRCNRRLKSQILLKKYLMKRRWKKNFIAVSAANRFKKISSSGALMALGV
Chain of Mitogen-activated protein kinase 8 (Homo sapiens) (P45983 whole entry): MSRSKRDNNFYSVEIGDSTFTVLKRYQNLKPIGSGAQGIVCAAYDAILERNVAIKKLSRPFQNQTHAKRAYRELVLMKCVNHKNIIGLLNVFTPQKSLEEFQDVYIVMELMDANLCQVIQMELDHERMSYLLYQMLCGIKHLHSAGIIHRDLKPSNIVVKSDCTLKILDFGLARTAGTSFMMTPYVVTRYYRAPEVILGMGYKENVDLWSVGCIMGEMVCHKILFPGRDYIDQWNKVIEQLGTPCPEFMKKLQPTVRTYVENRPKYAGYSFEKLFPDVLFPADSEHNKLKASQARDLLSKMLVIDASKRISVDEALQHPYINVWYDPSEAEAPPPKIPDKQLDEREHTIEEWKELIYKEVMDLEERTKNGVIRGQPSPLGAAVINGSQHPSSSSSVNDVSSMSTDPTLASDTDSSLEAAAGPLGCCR
Chain of Tyrosine-protein kinase Blk (Homo sapiens) (P51451 2-505 limits assumed): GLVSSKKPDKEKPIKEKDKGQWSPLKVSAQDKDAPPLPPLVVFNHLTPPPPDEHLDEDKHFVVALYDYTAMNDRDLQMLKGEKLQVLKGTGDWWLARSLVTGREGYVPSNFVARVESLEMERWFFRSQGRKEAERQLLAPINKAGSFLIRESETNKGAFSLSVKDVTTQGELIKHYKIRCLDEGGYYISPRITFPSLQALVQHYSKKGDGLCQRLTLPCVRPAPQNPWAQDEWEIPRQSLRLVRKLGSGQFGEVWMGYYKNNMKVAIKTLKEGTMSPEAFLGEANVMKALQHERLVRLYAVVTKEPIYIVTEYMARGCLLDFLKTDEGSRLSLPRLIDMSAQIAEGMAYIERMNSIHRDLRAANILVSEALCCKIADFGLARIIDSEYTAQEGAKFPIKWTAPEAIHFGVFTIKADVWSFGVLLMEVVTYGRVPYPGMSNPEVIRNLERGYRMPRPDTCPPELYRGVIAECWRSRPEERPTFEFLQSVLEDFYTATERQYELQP
Chain of Ribosomal protein S6 kinase alpha-5 (Homo sapiens) (O75582 whole entry, looked up): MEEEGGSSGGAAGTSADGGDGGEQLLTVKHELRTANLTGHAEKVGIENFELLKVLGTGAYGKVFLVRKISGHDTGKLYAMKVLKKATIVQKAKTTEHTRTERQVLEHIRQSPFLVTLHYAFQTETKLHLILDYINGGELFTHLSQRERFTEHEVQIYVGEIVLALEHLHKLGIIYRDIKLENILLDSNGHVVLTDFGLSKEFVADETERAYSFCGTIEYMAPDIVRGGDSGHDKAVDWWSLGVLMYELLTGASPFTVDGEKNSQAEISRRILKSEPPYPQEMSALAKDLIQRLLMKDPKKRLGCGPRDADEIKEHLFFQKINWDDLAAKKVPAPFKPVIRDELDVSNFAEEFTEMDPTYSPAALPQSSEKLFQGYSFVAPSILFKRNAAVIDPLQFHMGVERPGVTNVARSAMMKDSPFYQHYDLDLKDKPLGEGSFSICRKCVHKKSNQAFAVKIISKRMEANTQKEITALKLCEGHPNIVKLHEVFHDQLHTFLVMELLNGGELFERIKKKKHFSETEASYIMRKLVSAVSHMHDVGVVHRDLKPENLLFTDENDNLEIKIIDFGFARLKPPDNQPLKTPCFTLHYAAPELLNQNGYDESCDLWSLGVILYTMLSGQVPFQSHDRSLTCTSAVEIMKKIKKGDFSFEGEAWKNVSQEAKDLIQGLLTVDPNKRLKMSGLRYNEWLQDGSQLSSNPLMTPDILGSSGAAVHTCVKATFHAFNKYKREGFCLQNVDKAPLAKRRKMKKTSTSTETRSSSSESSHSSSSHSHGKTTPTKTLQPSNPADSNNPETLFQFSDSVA
Chain of Myosin light chain kinase, smooth muscle (Homo sapiens) (Q15746 whole entry): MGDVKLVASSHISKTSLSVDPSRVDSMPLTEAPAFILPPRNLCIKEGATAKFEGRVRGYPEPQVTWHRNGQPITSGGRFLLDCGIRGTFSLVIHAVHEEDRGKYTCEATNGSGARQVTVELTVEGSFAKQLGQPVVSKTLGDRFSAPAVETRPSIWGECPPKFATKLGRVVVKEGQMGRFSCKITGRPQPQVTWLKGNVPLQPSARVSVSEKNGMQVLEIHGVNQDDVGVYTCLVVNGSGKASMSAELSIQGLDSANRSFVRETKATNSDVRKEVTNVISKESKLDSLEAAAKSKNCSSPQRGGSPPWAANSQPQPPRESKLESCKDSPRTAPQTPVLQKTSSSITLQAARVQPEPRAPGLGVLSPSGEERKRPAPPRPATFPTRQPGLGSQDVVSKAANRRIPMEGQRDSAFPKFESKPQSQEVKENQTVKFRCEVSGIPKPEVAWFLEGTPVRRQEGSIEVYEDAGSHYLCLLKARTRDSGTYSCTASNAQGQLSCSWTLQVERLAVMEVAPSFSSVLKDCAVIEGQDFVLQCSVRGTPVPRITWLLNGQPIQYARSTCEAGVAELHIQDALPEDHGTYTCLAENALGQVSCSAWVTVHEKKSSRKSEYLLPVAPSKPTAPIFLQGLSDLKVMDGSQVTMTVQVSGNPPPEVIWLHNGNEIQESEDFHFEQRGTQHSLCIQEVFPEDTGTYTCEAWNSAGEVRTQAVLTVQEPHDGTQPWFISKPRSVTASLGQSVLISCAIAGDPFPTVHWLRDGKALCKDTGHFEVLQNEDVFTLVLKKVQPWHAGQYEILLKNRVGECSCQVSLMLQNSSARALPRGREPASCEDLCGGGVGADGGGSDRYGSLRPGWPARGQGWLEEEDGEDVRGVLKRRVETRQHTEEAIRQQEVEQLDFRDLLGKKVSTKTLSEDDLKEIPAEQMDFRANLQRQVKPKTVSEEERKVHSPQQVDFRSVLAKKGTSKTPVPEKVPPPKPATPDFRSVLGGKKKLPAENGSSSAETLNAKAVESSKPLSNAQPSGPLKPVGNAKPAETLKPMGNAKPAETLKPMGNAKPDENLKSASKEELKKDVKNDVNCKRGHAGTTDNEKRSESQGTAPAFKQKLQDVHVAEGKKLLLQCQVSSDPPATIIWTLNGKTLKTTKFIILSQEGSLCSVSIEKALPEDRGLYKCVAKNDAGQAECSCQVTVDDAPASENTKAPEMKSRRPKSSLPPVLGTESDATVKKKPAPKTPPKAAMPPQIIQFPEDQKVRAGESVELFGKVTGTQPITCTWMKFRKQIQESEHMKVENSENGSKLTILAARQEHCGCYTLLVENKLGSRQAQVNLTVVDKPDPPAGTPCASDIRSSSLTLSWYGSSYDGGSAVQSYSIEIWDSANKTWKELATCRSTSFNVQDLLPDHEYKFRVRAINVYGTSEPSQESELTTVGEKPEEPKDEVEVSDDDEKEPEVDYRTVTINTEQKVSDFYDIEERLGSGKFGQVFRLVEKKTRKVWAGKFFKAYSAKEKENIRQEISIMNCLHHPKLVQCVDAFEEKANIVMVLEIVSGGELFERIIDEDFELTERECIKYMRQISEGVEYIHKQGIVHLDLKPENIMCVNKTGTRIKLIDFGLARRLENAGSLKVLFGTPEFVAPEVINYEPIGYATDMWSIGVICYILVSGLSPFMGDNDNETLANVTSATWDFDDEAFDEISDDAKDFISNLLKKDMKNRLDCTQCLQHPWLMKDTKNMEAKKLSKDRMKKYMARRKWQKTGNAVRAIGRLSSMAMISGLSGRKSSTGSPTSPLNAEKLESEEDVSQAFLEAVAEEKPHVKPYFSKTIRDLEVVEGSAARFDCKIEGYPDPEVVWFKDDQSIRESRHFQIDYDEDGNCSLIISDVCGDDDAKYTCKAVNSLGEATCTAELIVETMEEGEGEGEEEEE
Chain of Protein kinase C eta type (Homo sapiens) (P24723 whole entry): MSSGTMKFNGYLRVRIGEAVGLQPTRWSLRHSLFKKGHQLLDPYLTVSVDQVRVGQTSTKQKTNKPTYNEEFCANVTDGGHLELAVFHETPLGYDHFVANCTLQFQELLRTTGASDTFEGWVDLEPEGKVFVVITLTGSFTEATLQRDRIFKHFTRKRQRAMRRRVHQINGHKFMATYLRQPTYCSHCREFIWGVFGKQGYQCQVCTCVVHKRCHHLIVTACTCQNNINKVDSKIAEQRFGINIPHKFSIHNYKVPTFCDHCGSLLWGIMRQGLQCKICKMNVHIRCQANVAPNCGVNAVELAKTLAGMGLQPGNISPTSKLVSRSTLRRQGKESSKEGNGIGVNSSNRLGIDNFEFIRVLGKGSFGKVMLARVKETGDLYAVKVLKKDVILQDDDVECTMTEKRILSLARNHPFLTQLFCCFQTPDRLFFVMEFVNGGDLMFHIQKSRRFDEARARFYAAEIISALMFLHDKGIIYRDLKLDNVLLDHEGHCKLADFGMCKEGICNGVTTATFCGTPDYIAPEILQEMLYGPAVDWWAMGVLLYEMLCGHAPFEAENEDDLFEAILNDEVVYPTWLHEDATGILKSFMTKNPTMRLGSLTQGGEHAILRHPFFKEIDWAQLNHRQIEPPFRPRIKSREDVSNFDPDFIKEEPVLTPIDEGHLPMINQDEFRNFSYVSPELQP

C[C@@H]1CN(c2cc(-c3n[nH]c4ccc(OC5(C)CC5)cc34)ncn2)C[C@H](C)O1 [MLi-2]
inactive: [1] 1.42% | [2] 1.13% | [3] 6.89% | [4] -0.139% | [5] 4.36% | [6] -2.67% | [7] 17% | [8] 3.68% | [9] 0.435% | [10] 5.78% | [11] 12% | [12] 3.53% | [13] 6.4% | [14] 2.46% | [15] 10.9% | [16] -2.1% | [17] 24.3% | [18] 8.15% | [19] 4.4%
